Measurements published in ChEMBL document CHEMBL6109157, “Tertiary Alcohol: Reaping the Benefits but Minimizing the Drawbacks of Hydroxy Groups in Drug Discovery” (J Med Chem, 2025).

Experiments:
[1] = Binding affinity to [125I] radiolabelled Angiotensin-2 receptor in bovine adrenal cortex membrane; format: cell membranes, Bos taurus
[2] = In vivo inhibition of Angiotensin II-induced pressor response in Wistar rat model at 0.3 mg/kg, po and measured for 6 hrs; format: functional
[3] = AUC in mouse at 50 mg/kg, po measured for 40 mins by LC-MS/MS analysis; format: ADME, organism-based; conditions: in vivo
Mus musculus [4] = assay: Dose normalized in AUC mouse at 50 mg/kg by LC-MS/MS analysis; format: ADME, organism-based; conditions: in vivo
[5] = target: Dual specificity mitogen-activated protein kinase kinase 1 (Homo sapiens, UniProt Q02750); assay: Inhibition of MEK1 (unknown origin) phosphorylation
Chain of Dual specificity mitogen-activated protein kinase kinase 1 (Q02750 whole entry): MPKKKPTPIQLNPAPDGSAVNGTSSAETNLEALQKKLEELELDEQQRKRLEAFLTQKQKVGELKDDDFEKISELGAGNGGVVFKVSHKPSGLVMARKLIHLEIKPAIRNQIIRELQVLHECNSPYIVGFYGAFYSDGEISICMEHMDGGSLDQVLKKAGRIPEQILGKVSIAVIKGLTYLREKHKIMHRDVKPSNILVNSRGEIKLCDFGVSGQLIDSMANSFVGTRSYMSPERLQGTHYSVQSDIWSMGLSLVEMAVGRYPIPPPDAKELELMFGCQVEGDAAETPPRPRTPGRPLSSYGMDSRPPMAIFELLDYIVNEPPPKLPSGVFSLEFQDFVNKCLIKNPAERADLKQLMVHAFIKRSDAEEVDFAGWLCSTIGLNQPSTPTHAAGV

[6] = AUC in po dosed mouse at 25 mg/kg by LC-MS/MS analysis; format: ADME, organism-based; conditions: in vivo
Mus musculus [7] = assay: Dose normalized in AUC mouse at 25 mg/kg by LC-MS/MS analysis; format: ADME, organism-based; conditions: in vivo

Structure (SMILES)	IC50 [1]	inhibition in vivo at 0.3 mg/kg [2]	also measured
CCCc1nc(CC)c(C(=O)O)n1Cc1ccc(-c2ccccc2-c2nn[nH]n2)cc1	12 nM		
CCCc1nc(CO)c(C(=O)O)n1Cc1ccc(-c2ccccc2-c2nn[nH]n2)cc1	6.9 nM	65%	
Nc1nccn2c(C3CCC3)nc(-c3ccc4ccc(-c5ccccc5)nc4c3)c12			AUC [3]: 5170 ng·h/mL; AUC/dose (Mus musculus [4]): 103.4 ng·h/mL/mg/kg
CCCc1nc(C(C)O)c(C(=O)O)n1Cc1ccc(-c2ccccc2-c2nn[nH]n2)cc1 (centres undefined)	4.9 nM	69%	
O=C(c1ccc(F)c(F)c1Nc1ccc(I)cc1F)N1CC(O)([C@@H]2CCCCN2)C1 [COBIMETINIB]			IC50 [5]: 0.2 nM
C[C@]1(O)C[C@@H](c2nc(-c3ccc4ccc(-c5ccccc5)nc4c3)c3c(N)nccn32)C1 [LINSITINIB]			AUC [6]: 26700 ng·h/mL; AUC/dose (Mus musculus [7]): 1069.6 ng·h/mL/mg/kg

The next lines start with results.

IC50 [1]	Structure (SMILES)	inhibition in vivo at 0.3 mg/kg [2]	also measured
46 nM	CCCc1nc(C(C)C)c(C(=O)O)n1Cc1ccc(-c2ccccc2-c2nn[nH]n2)cc1		
11 nM	CCCc1nc(C)c(C(=O)O)n1Cc1ccc(-c2ccccc2-c2nn[nH]n2)cc1		
8.1 nM	CCCc1nc(C(C)(C)O)c(C(=O)O)n1Cc1ccc(-c2ccccc2-c2nnn[nH]2)cc1 [OLMESARTAN]	78%	
